Measurements reported in patent US20060276485A1, “Substituted piperidine and piperazine derivatives as melanocortin-4 receptor modulators” (priority 2003, published 2006).
Entries after “also recorded” stand apart in the source; their conditions may differ. Where two headings read alike, the source gives them in different places.

How the values were obtained:
[1] = Spontaneous feeding paradigm: food intake in rats; assay type: in vivo, male Wistar rats; details: for increase in cumulative food intake: compared to vehicle; for activity in the spontaneous feeding paradigm: significant increase in food intake at dose of 3 to 30 mg/kg p.o.
Procedure: Food intake in rats is measured after i.p. or p.o. administration of the test compound (see e.g. Chen, A. S. et al. Transgenic Res 2000 April 9(2):145-54).
Selected Examples of the present invention were active in the rat model at 3, 10 or 30 mg/kg after i.p. and p.o. administration of the test compound, respectively, using male Wistar rats (n=4).

[2] = target: T1, human melanocortin-4 receptor (hMC4-R) (Homo sapiens, UniProt P32245); test: Functional cellular cAMP assay in HEK293 cells, fluorescence polarization; assay type: cell-based
T1 construct: expressed in transfected cells; host or cells: HEK293 cells
Procedure: A functional cellular assay, based on competition between unlabeled CAMP and a fixed quantity of fluorescence labeled CAMP for a limited number of binding sites on a CAMP specific antibody, is used to discriminate melanocortin receptor agonists from antagonists by fluorescence polarization.
HEK293 cells expressing one of the human melanocortin receptors are transferred to 384 well microtiter plates, an appropriate amount of CAMP antibody is added, followed by the addition of different concentrations of the test compound to effect cAMP production. Cells are lysed and a fluorescence labeled cAMP conjugate is dispensed. The plate is read on a fluorescence polarization microplate reader and the amount of cAMP produced as a response to a test compound is compared to the production of CAMP resulting from stimulation with NDP-alpha-MSH. […]

[3] = target: T1, human melanocortin-4 receptor (hMC4-R); test: Membrane binding assay: competition with fluorescence labeled NDP-alpha-MSH, fluorescence polarization
Procedure: A membrane binding assay is used to identify competitive inhibitors of fluorescence labeled NDP-alpha-MSH binding to HEK293 cell membrane preparations expressing human melanocortin receptors.
The test compound or unlabeled NDP-alpha-MSH is dispensed at varying concentrations to a 384 well microtiter plate. Fluorescence labeled NDP-alpha-MSH is dispensed at a single concentration, followed by addition of membrane preparations. The plate is incubated for 5 h at room temperature.
The degree of fluorescence polarization is determined with a fluorescence polarization microplate reader.

[4] = target: T2, melanocortin-4 receptor (Homo sapiens, UniProt P32245); details: J. Med. Chem. 2004, 47, 744-755; read-out: melanocortin-4 receptor binding Ki; cited from earlier work
[5] = target: T2, melanocortin-4 receptor; details: cited from earlier work; for EC50: read-out: melanocortin-4 receptor activation EC50
[6] = Bioorg. Med. Chem. Lett. 2003, 13, 3793-3796

T2 sequence (P32245 whole entry): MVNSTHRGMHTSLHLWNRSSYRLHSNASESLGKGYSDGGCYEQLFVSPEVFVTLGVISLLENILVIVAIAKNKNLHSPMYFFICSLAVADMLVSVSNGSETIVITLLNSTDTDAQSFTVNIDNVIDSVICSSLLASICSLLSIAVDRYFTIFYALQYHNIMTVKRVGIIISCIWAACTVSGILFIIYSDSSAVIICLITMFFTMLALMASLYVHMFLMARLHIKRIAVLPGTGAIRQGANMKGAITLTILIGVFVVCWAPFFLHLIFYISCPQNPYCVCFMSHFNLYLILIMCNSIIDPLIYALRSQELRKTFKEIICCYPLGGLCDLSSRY
T1 sequence (P32245 whole entry): as above

| Compound | % activation functional assay ([2]; relative to NDP-alpha-MSH) | IC50 [3] [nM] | also measured |
| --- | --- | --- | --- |
| COc1ccc2oc(C(=O)N[C@@H](Cc3ccc(Cl)cc3)C(=O)N3CCC(c4ccccc4CN4CCCC4=O)CC3)cc(=O)c2c1 [Example 17] |  |  | increase in cumulative food intake ([1]; 10 mg/kg p.o., 2 hours following administration): 3100%; increase in cumulative food intake ([1]; 10 mg/kg p.o., 4 hours following administration): 540%; activity in the spontaneous feeding paradigm [1]: active |
| CS(=O)(=O)Nc1ccccc1N1CCN(C(=O)[C@@H](Cc2ccc(Cl)cc2)NC(=O)[C@H]2Cc3ccccc3CN2)CC1 [WO03009850 (example 1)] | 96% | 500 | EC50 [2]: 3700 nM; Ki [4]: 220 nM; stimulation of melanocortin-4 receptor [5, 6]: 100%; EC50 [5, 6]: 380 nM; EC50 ([5]; J. Med. Chem. 2004, 47, 744-755): 16 nM |
| O=C(N[C@@H](Cc1ccc(Cl)cc1)C(=O)N1CCC(c2ccccc2CN2CCCCC2=O)CC1)c1cc(=O)c2ccccc2o1 [Example 92] | does not activate; also recorded: no activation | 200 |  |
| O=C(N[C@H](Cc1ccc(Cl)cc1)C(=O)N1CCC(c2ccccc2CN2CCC2=O)CC1)c1cc(=O)c2ccccc2o1 [Example 178] | does not activate; also recorded: no activation | 200 |  |
| O=C(N[C@H](Cc1ccc2ccccc2c1)C(=O)N1CCC(c2ccccc2CN2CCCC2=O)CC1)c1cc(=O)c2ccccc2o1 [Example 91] | does not activate; also recorded: no activation | 120 |  |
| O=C(N[C@@H](Cc1ccc(Cl)cc1)C(=O)N1CCN(c2ccccc2CN2CCCC2=O)CC1)c1cc(=O)c2ccccc2o1 [Example 181] | does not activate; also recorded: no activation | 770 |  |
| O=C(N[C@H](Cc1ccc(Cl)cc1)C(=O)N1CCC(c2ccccc2CN2CCCCCC2=O)CC1)c1cc(=O)c2ccccc2o1 [Example 180] | does not activate; also recorded: no activation | 47 |  |
| O=C(N[C@@H](Cc1ccc(Cl)cc1)C(=O)N1CCC(c2ccccc2CN2CCCC2=O)CC1)c1cc(=O)c2ccccc2o1 [Example 1] | does not activate; also recorded: no activation | 200 | increase in cumulative food intake ([1]; 30 mg/kg p.o., 4 hours following administration): 159%; increase in cumulative food intake ([1]; 30 mg/kg p.o., 6 hours following administration): 131%; increase in cumulative food intake ([1]; 30 mg/kg p.o., 7 hours following administration): 148%; activity in the spontaneous feeding paradigm [1]: active |
| O=C(N[C@H](Cc1ccc2ccccc2c1)C(=O)N1CCN(c2ccccc2CN2CCCC2=O)CC1)c1cc(=O)c2ccccc2o1 [Example 267] | does not activate; also recorded: no activation | 100 |  |
| O=C(N[C@H](Cc1ccc(Cl)cc1)C(=O)N1CCN(c2ccccc2CN2CCCC2=O)CC1)c1cc(=O)c2ccccc2o1 [Example 182] |  | 61 | % activation functional assay ([2]; at 10 μM): 15%@10 μM; % activation functional assay ([2]; at 10 μM, listed as example 182): little or no activation; increase in cumulative food intake ([1]; 3 mg/kg p.o., 2 hours following administration): 273%; increase in cumulative food intake ([1]; 3 mg/kg p.o., 4 hours following administration): 204%; increase in cumulative food intake ([1]; 3 mg/kg p.o., 6 hours following administration): 156%; increase in cumulative food intake ([1]; 3 mg/kg p.o., 7 hours following administration): 197%; activity in the spontaneous feeding paradigm [1]: active |
| O=C(N[C@@H](Cc1ccc(Cl)cc1)C(=O)N1CCC(c2ccccc2CN2CCCCCC2=O)CC1)c1cc(=O)c2ccccc2o1 [Example 179] | does not activate; also recorded: no activation | 500 |  |
| O=C(N[C@H](Cc1ccc(Cl)cc1)C(=O)N1CCC(c2ccccc2CN2CCCC2=O)CC1)c1cc(=O)c2ccccc2o1 [example 2] | 43% | 36 | EC50 [2]: 5700 nM |
| O=C(N[C@H](Cc1ccc(Cl)cc1)C(=O)N1CCC(c2ccccc2CN2CCCCC2=O)CC1)c1cc(=O)c2ccccc2o1 [Example 93] | does not activate; also recorded: no activation | 51 |  |
